The compounds below were run against T1, human CGRP receptor (Homo sapiens, UniProt O60894+Q16602) (assay: Binding studies with SK-N-MC cells (expressing the human CGRP receptor)). Conditions: SK-N-MC membranes, 50 pM 125I-iodotyrosyl-CGRP, 180 minutes at ambient temperature.
T1 construct: SK-N-MC membranes (˜20 μg protein) are incubated for 180 minutes at ambient temperature; endogenous in cells; host or cells: SK-N-MC cells (membranes)
Method: A. Binding Studies with SK-N-MC Cells (Expressing the Human CGRP Receptor)
SK-N-MC membranes (˜20 μg protein) are incubated for 180 minutes at ambient temperature with 50 pM ^125I-iodotyrosyl-Calcitonin-Gene-Related Peptide and increasing concentrations of the test substances in a total volume of 250 μl (assay buffer: 10 mM tris, 50 mM NaCl, 5 mM MgCl2, 1 mM EDTA, pH=7.4). The incubation is ended by rapid filtration through GF/B-glass fibre filters treated with polyethyleneimine (0.1%) using a cell harvester. The protein-bound radioactivity is measured using a gamma counter. Non-specific binding is defined as the bound radioactivity after the presence of 1 μM BIBN4096BS during incubation.
The concentration binding curves are analysed using computer-aided non-linear curve fitting.

T1 sequence (Q16602 23-461): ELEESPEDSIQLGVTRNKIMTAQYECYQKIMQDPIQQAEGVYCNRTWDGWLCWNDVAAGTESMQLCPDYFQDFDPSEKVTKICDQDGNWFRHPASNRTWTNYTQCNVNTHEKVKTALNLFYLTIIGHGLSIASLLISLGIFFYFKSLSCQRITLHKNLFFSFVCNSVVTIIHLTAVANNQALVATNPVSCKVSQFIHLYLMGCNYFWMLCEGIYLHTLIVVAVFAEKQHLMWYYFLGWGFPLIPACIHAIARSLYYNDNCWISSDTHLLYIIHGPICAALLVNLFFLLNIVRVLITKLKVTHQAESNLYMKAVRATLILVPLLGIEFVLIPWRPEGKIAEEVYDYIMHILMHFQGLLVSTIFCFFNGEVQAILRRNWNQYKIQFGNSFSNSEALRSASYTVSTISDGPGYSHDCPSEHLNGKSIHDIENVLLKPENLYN
T1 sequence (O60894 27-148): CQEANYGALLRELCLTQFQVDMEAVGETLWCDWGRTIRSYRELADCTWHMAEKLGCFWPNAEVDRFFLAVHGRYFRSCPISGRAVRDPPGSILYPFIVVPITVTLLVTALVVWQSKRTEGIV

Row | SMILES | Ki
1 | COc1ccc2c(c1)CCN(C1CCN(c3cc(C(=O)N4Cc5cn[nH]c5C(C)(C)C4)ncn3)CC1)C(=O)N2 [(8)] | 4 nM
2 | O=C(c1cc(N2CCC(n3c(=O)[nH]c4ncccc43)CC2)ncn1)N1CCC2CCCCC21 (stereo not drawn) [(11)] | 34 nM
3 | O=C(c1cc(N2CCC(n3nc(-c4ccccc4)[nH]c3=O)CC2)ncn1)N1CCc2ccccc21 [(15)] | 21 nM
4 | O=C(c1cc(N2CCC(n3c(=O)[nH]c4ncccc43)CC2)ncn1)N1Cc2ccccc2C1 [(17)] | 117 nM
5 | O=C(c1cc(N2CCC(n3c(=O)[nH]c4ncccc43)CC2)ncn1)N1CCc2cc(F)ccc21 [(36)] | 5 nM
6 | CC1(C)CN(C(=O)c2cc(N3CCC(n4c(=O)[nH]c5ncccc54)CC3)ncn2)c2ccc(F)cc21 [(37)] | 2 nM
7 | O=C(c1cc(N2CCC(n3c(=O)[nH]c4ncccc43)CC2)ncn1)N1CC(CCCN2CCCC2)c2ccccc21 (stereo not drawn) [(41)] | 21 nM
8 | CC1(C)CCN(C(=O)c2cc(N3CCC(n4c(=O)[nH]c5ncccc54)CC3)ncn2)C1 [(50)] | 690 nM
9 | CC1(C)CN(C(=O)c2cc(N3CCC(n4c(=O)[nH]c5ncccc54)CC3)ncn2)Cc2ccccc21 [(55)] | 3 nM
